In patent US20250115620A1, “BRIDGED TRICYCLIC CARBAMOYLPYRIDONE COMPOUNDS AND USES THEREOF” (Gilead Sciences, Inc., priority 2022, published 2025) one finds EC50 and CC50 data, which are given here for six molecules.

Series [1] concerns pLAI reporter virus. The experiment in a line: microbe, parasite or virus in culture. To be noted: Human immunodeficiency virus 1, MT4, 72 h. It is filed as cell-based, HIV.
In series [2] the test system is HIV-1 (IIIB). The experiment in a line: microbe, parasite or virus in culture. It is filed as cell-based. To be noted: Human immunodeficiency virus 1, IIIB, MT4, 120 h, read-out: MT4 EC50.
Series [3] is described as follows: in vitro. To be noted: human, uninfected MT-4 cells.
The mark [4] stands for this setting: HIV-1 (IIIB) in MT-4 cells, 5 days incubation, Cell Titer Glo.

Like-named read-outs stand apart in the source and are kept apart here.

For orientation: EC50 means the concentration giving half of the maximal effect. By CC50 is commonly meant the concentration that lowers cell viability or growth by half. As to `C[C@H]1CC[C@]2(CC(CCF)=NO2)[C@H]2CN1C(=O)c1c(O)c(=O)c(C(=O)NCc3c(F)cc(F)cc3F)cn12` [Example 69, (3′S,5S,7′R)-3-(2-fluoroethyl)-12′-hydroxy-3′-methyl-1′,11′-dioxo-N-(2,4,6-trifluorobenzyl)-1′,4′,5′,11′-tetrahydro-3′H,4H,7′H-spiro[isoxazole-5,6′-[2,7]methanopyrido[1,2-a][1,4]diazonine]-10′-carboxamide], the EC50 in series [1] (read-out: RLUC 50% HS EC50) worked out at 94.1 nM; in series [1] (read-out: RLUC CCM EC50), 0.2 nM; in series [2] (setting [4]) it was 1.3 nM. Besides, the CC50 at 5 days in series [3] worked out at 26300 nM.

Regarding `C[C@@H](F)C1=NO[C@@]2(CC[C@H](C)N3C[C@H]2n2cc(C(=O)NCc4c(F)cc(F)cc4F)c(=O)c(O)c2C3=O)C1` [Example 70, (3′S,5S,7′R)-3-((R)-1-fluoroethyl)-12′-hydroxy-3′-methyl-1′,11′-dioxo-N-(2,4,6-trifluorobenzyl)-1′,4′,5′,11′-tetrahydro-3′H,4H,7′H-spiro[isoxazole-5,6′-[2,7]methanopyrido[1,2-a][1,4]diazonine]-10′-carboxamide], the EC50 in series [1] (read-out: RLUC 50% HS EC50) turned out to be 176 nM; in series [1] (read-out: RLUC CCM EC50), 0.4 nM; in series [2] (setting [4]), 1.3 nM. The CC50 at 5 days in series [3] was found to be 26600 nM.

As for `C[C@H]1CC[C@]2(CC(C(C)(F)F)=NO2)[C@H]2CN1C(=O)c1c(O)c(=O)c(C(=O)NCc3c(F)cc(F)cc3F)cn12` [Example 71, (3′S,5S,7′R)-3-(1,1-difluoroethyl)-12′-hydroxy-3′-methyl-1′,11′-dioxo-N-(2,4,6-trifluorobenzyl)-1′,4′,5′,11′-tetrahydro-3′H,4H,7′H-spiro[isoxazole-5,6′-[2,7]methanopyrido[1,2-a][1,4]diazonine]-10′-carboxamide], the values for the EC50 in series [1] (read-out: RLUC 50% HS EC50), in series [1] (read-out: RLUC CCM EC50) and in series [2] (setting [4]) were 82.4 nM, 0.2 nM and 3.3 nM, respectively. The molecule also showed a CC50 at 5 days in series [3] of 32100 nM.

As for `C[C@H]1CC[C@]2(CC=NO2)[C@H]2CN1C(=O)c1c(O)c(=O)c(C(=O)NCc3c(F)cc(F)cc3F)cn12` [Example 72, (3′S,5S,7′R)-12′-hydroxy-3′-methyl-1′,11′-dioxo-N-(2,4,6-trifluorobenzyl)-1′,4′,5′,11′-tetrahydro-3′H,4H,7′H-spiro[isoxazole-5,6′-[2,7]methanopyrido[1,2-a][1,4]diazonine]-10′-carboxamide], the EC50 in series [1] (read-out: RLUC 50% HS EC50) was 108 nM; in series [1] (read-out: RLUC CCM EC50) it was 0.3 nM; in series [2] (setting [4]) it was 1.2 nM. For the same molecule, the CC50 at 5 days in series [3] is 31900 nM.

Turning to `C[C@H]1CC[C@]2(CC(C(F)(F)F)=NO2)[C@H]2CN1C(=O)c1c(O)c(=O)c(C(=O)NCc3c(F)cc(F)cc3F)cn12` [Example 73, (3′S,5S,7′R)-12′-hydroxy-3′-methyl-1′,11′-dioxo-N-(2,4,6-trifluorobenzyl)-3-(trifluoromethyl)-1′,4′,5′,11′-tetrahydro-3′H,4H,7′H-spiro[isoxazole-5,6′-[2,7]methanopyrido[1,2-a][1,4]diazonine]-10′-carboxamide], the EC50 in series [1] (read-out: RLUC 50% HS EC50) turned out to be 65.2 nM; in series [1] (read-out: RLUC CCM EC50) it was 0.2 nM; in series [2] (setting [4]), 1.1 nM. The molecule further had a CC50 at 5 days in series [3] of 31200 nM.

Turning to `C[C@H]1CC[C@]2(CC(N3CCC3)=NO2)[C@H]2CN1C(=O)c1c(O)c(=O)c(C(=O)NCc3c(F)cc(F)cc3F)cn12` [Example 74, (3′S,5S,7′R)-3-(azetidin-1-yl)-12′-hydroxy-3′-methyl-1′,11′-dioxo-N-(2,4,6-trifluorobenzyl)-1′,4′,5′,11′-tetrahydro-3′H,4H,7′H-spiro[isoxazole-5,6′-[2,7]methanopyrido[1,2-a][1,4]diazonine]-10′-carboxamide], the EC50 was 4.9 nM in series [1] (read-out: RLUC 50% HS EC50), 0.4 nM in series [1] (read-out: RLUC CCM EC50) and 2.1 nM in series [2]. Also, the CC50 at 5 days in series [3] was determined as 22300 nM.
